The text below walks through data of paper PMC11494886, “Discovery and design of molecular glue enhancers of CDK12–DDB1 interactions for targeted degradation of cyclin K” (RSC Chemical Biology, 2024).

Each structure is given as a SMILES string. pEC50: −log10 of the molar value.

Assay [1] has as its target T1, Cdk12/CycK and DDB1ΔB (Homo sapiens, UniProt Q16531+Q9NYV4, DEL396-705).
T1 construct: the Cdk12 (714–1063)/CycK (1–267) complex and the DDB1ΔB protein; made in house; host or cells: Sf9 insect cells (MultiBacTurbo)
As to the kind of experiment: GST pulldown assay, recruitment of DDB1ΔB to Cdk12/CycK. It counts as binding. The following applies: GST-Cdk12/GST-CycK bait, 5 μM compound, vs DMSO. The method, then:
The pulldown assay was utilized to identify drug-triggered protein–protein interactions involving the Cdk12 (714–1063)/CycK (1–267) complex and the DDB1ΔB protein. In this assay, purified GST-tagged Cdk12 construct complexed with GST-CycK was combined with equimolar amounts of His6-tagged DDB1ΔB (5 μM) in the presence of 5 μM of the respective small molecular compound in pulldown assay buffer (50 mM Hepes pH 7.4, 200 mM NaCl, 0.25 mM TCEP, 0.05% (v/v) Tween20), ensuring a 2% total DMSO concentration. Experimental controls included samples supplemented with 2% DMSO instead of compound as well as samples devoid of the GST-tagged Cdk12/CycK complex. Each sample was individually added to approximately 50 μL of pre-equilibrated glutathione agarose beads (Thermo Fisher Scientific). The bead suspensions were then subjected to a 2 h incubation period at room temperature with gentle agitation. After incubation, the beads were pelleted by centrifugation at 700 × g for 4 min, the supernatant was discarded, and the beads were washed three-times with 100 μL of pulldown assay buffer. Following the washing step, bound proteins were eluted from the beads with 50 μL of pulldown assay buffer supplemented with 10 mM GSH for 1 h at room temperature under rotation. Subsequently, the beads were again pelleted by centrifugation at 700 × g for 4 min and the resulting supernatants containing eluted protein fractions were mixed with 6 × SDS sample buffer at a 1 : 1 (v/v) ratio. The eluted protein samples were separated by SDS-PAGE and subjected to Coomassie brilliant blue staining for visualization and analysis.

The target in assay [2] is T1, Cdk12/CycK and DDB1ΔB. As to the kind of experiment: Thermal stability (nanoDSF) of mixture of DDB1ΔB and Cdk12/CycK. It counts as binding. The following applies: Cdk12/CycK and DDB1ΔB 5 μM each, 3-fold molar excess of compound. The text has this: Synthetic genes, codon optimized for expression in Sf9 insect cells, comprising the kinase domain of human Cdk12 (residues 714–1063, UniProt accession number Q9NYV4) and cyclin box domains of human cyclin K (residues 1–267, UniProt accession number O75909) were purchased from GeneArt. The coding sequence of Cdk12 was integrated into the pACEBac1 acceptor vector, while CycK was introduced into pIDK donor vector. Both target vectors underwent modification, wherein a GST-affinity tag followed by a tobacco etch virus (TEV) protease cleavage site was introduced upstream of the protein coding sequence. A pIDC donor vector was employed to insert full-length CDK-activating kinase CAK1 (UniProt accession number P43568) from S. cerevisiae devoid of any affinity tag. […]
The human wild-type BPB domain deletion version (ΔBPB: amino acids 396–705 deleted) of DNA damage-binding protein 1 (DDB1) (residues 1–1140 Δ396–705, UniProt accession number Q16531) was PCR-amplified from AddGene plasmid #124213 and inserted into a pACEBac1 vector, which had been modified with a N-terminal His6 affinity tag. […] After loading the supernatant, the column was washed with 10 column volumes (CV) lysis buffer to achieve baseline levels of absorbance at 280 nm wavelength, followed by 3 CV of wash buffer (50 mM Tris pH 8, 200 mM NaCl, 1 mM TCEP, 50 mM Imidazole) and another round of lysis buffer (5 CV). […]
A general note: In DSF a fluorescence change marks the thermal transition of the protein.

A further assay concerns MDA-MB-231 cells. The experiment in a line: CellTiter-Glo viability assay, WT MDA-MB-231. Format: cell-based. Conditions: Homo sapiens; WT MDA-MB-231, 72 hours, CellTiter-Glo; read-out: EC50 cell viability. The source says: MDA-MB-231 (human triple-negative breast cancer cells) and HEK293T (human embryonic kidney cells) were purchased from the American type culture collection (ATCC) and maintained in Dulbecco's modified Eagle's medium (DMEM) (Gibco) supplemented with 10% (v/v) heat-inactivated fetal bovine serum (FBS) (Gibco) and penicillin/streptomycin (100 U mL^−1 each). HiBiT-CCNK KI A549 cells, purchased from Promega, were maintained in F12 medium supplemented with 10% (v/v) heat-inactivated fetal bovine serum (FBS) (Gibco) and penicillin/streptomycin (100 U mL^−1 each). DDB1-knockdown MDA-MB-231 and DDB1-knockdown HEK293T cell lines were maintained in the same media formulation as their corresponding wild-type cell lines. All cell lines were cultured at 37 °C in an incubator with CO2 levels maintained at 5%.
Cell viability was measured by Cell Titer Glo assay kit (Promega, USA). EC50 was determined from the nonlinear regression and a four-parameter algorithm on the GraphPad Prism software.
A general note: Cellular ATP, detected with luciferase, serves as a proxy for viable cell number.

T1 sequence (Q9NYV4 714-1063, stated change not applied): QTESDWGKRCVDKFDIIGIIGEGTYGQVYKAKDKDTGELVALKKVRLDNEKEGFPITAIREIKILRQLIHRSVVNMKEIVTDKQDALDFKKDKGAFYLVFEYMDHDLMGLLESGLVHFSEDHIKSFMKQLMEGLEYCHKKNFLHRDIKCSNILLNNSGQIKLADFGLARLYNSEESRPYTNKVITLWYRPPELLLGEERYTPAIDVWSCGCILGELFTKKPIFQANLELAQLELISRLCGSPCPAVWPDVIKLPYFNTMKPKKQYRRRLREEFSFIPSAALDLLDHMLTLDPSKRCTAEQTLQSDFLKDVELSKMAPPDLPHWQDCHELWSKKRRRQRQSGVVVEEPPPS
T1 sequence (O75909 1-267 partner limits assumed): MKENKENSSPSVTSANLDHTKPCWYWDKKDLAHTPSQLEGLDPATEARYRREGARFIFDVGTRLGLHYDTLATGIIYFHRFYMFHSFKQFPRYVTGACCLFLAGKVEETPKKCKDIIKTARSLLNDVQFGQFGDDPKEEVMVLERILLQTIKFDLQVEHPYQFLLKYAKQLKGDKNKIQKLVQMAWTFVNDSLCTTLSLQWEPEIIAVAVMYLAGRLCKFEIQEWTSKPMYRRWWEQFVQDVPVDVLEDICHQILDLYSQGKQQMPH
T1 sequence (Q16531 with tags, fused parts or gaps DEL396-705): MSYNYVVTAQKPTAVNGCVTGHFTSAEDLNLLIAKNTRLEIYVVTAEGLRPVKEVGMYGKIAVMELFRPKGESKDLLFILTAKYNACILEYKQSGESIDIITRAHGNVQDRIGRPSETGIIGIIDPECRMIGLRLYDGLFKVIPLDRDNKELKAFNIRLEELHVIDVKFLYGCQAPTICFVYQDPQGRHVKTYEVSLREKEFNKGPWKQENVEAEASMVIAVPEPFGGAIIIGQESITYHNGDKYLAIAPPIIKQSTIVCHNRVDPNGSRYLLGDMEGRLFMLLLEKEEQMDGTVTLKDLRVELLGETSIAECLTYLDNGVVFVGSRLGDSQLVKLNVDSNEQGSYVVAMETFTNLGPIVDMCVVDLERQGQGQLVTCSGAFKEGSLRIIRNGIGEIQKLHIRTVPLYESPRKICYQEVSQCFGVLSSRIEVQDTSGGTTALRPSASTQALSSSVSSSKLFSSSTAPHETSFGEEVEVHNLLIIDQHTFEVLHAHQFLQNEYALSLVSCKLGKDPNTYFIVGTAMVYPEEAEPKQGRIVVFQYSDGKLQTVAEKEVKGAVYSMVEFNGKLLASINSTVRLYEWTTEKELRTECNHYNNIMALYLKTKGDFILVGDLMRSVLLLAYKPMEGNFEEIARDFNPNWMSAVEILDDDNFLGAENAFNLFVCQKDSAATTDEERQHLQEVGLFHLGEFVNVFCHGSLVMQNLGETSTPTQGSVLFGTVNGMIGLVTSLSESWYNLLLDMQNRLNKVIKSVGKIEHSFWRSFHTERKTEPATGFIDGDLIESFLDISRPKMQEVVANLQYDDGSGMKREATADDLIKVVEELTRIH

The pEC50 is the EC50 on a negative log10 scale, so that one unit is a factor of ten. For the compound `Cn1cc(-n2cnc3c(NCc4nc5cc(Cl)c(Cl)cc5[nH]4)nc(N4CCOCC4)nc32)cn1` [SR-4835], the “recruitment of DDB1ΔB in pulldown” value at Cdk12/CycK and DDB1ΔB [1] is given as “enrichment of DDB1ΔB fractions”. The ΔTm entry at Cdk12/CycK and DDB1ΔB [2] was “+5.05 °C”. Further, the pEC50 in the assay on MDA-MB-231 cells was 7.26.

Regarding `CN(C)C/C=C/C(=O)Nc1ccc(C(=O)N2CCC[C@@H](Nc3ncc(Cl)c(-c4c[nH]c5ccccc45)n3)C2)cc1` [THZ531, reference compound], the “recruitment of DDB1ΔB in pulldown” value at Cdk12/CycK and DDB1ΔB [1] is listed as “incapable of recruiting the DDB1ΔB protein”. Besides, on Cdk12/CycK and DDB1ΔB [2], the ΔTm entry was “+2 °C”. Further, in the assay with MDA-MB-231 cells, the pEC50 was 7.14.
